Values after ≈ are worked out from the molar mass of the structure shown.
Tests used:
E faecalis ATCC 29212 = test: Disc diffusion assay (DDA); type: cell-based, Enterococcus faecalis; settings: zone diameter, 200 μg per disc
Excerpt: 3. Enterococcus faecalis ATCC 29212—this is a Gram-positive bacterium belonging to the genus Enterococcus. Enterococci have similar properties to streptococci, but differ in their ability to grow on bile-salt containing media such as MacConkey's Agar. Their principal habitat is the mammalian gastrointestinal tract. They cause a number of important infections including endocarditis, urinary tract infections and abscesses. In the context of skin, they are frequently isolated from wound infections. Unlike the streptococci, the enterococci have developed widespread resistance to penicillin. More recently, E. faecalis and E. faecium strains have also developed resistance to the glycopeptide antibiotics such as vancomycin. Vancomycin-Resistant Enterococci (VRE), principally vanA strains of E. faecium, now represent a serious healthcare-acquired infection hazard in the USA, Japan and Western Europe. […]
A sterile paper disc was impregnated with a sample of the test compound and a minimum of 30 minutes allowed for the solvents to evaporate as far as possible. […] The diameter of this zone of “inhibition” was measured using a ProtoCOL™ automated zone sizer (Synbiosis, Cambridge, UK). […]
The area of the zone of inhibition was calculated from the measured zone diameter (D) using the formula π(D/2)^2. […]

P. acnes PRP-046 = test: MBC assay; type: cell-based, Propionibacterium acnes; settings: Cutibacterium acnes, PRP046; P. acnes PRP-046 (resistance None)
Procedure: (§1) The Propionibacterium spp organisms were cultured and maintained on Wilkins-Chalgren Anaerobe Medium (agar and broth) at pH 6.0; cultures were incubated anaerobically at 37° C. for 72 hours.
(§2) This assay, normally carried out after an MIC assay, determines the minimum concentration of a compound that is lethal to the micro-organism being tested.
(§3) These samples were then individually sub-cultured on non-selective agar medium, under the incubation conditions described above. Following incubation they were examined visually for bacterial growth.

P. acnes PRP-023 = test: MBC assay; type: cell-based, Propionibacterium acnes; settings: Cutibacterium acnes, PRP023; P. acnes PRP-023 (resistance MLSK)
Procedure: as §1, §2, §3

P. acnes PRP-004 = test: MBC assay; type: cell-based, Propionibacterium acnes; settings: Cutibacterium acnes, PRP004; P. acnes PRP-004 (resistance Tet)
Procedure: as §1, §2, §3

P. acnes PRP-008 = test: MBC assay; type: cell-based, Propionibacterium acnes; settings: Cutibacterium acnes, PRP008; P. acnes PRP-008 (resistance Clin)
Procedure: as §1, §2, §3

Structure (SMILES) | DDA (E faecalis ATCC 29212) [mm] | MBC (P. acnes PRP-046) [µg/mL] | MBC (P. acnes PRP-023) [µg/mL] | MBC (P. acnes PRP-004) [µg/mL] | MBC (P. acnes PRP-008) [µg/mL]
O=C(OOC(=O)c1ccccc1)c1ccccc1 [benzoyl peroxide] | 0.0 | 62.5 (≈ 258 µM) | 62.5 (≈ 258 µM) | 15.6 (≈ 64.4 µM) | 31.2 (≈ 129 µM)
CC(C)(C)c1cc(O)ccc1O [TBHQ, t-butyl hydroquinone] | 33.67 | 7.8 (≈ 46.9 µM) | 7.8 (≈ 46.9 µM) | 7.8 (≈ 46.9 µM) | 7.8 (≈ 46.9 µM)

Source: patent US20080262097A1, “Formulations” (priority 2005, published 2008)
